# Where two headings read alike, the source gives them in different places. Marks after values point to notes of the source that are not given here.
# Key:
# c-Fos positive neurones = test: Example 1: formalin hindpaw injection in 7 day neonatal rat pup, cFos positive neurones in dorsal horn; format: in vivo; conditions: 7 day old rat; dorsal horn of spinal cord; 90 minutes after formalin; xenon 70% v/v, nitrous oxide at a normally analgesic dose in the adult rat
# Procedure: The analgesic efficacy of xenon was investigated in a neonatal rat pup. A 7 day neonatal rat pup is known to be developmentally equivalent to a human full term fetus with respect to pain processing pathways.
# A 7 day old rat was injected with formalin into the hindpaw during exposure to either air or xenon (70% v/v). 90 minutes later the animal was killed and the spinal cord removed; evidence of activation of pain-processing pathways by formalin was sought by counting the number of cFos positive neurones in the dorsal horn of the spinal cord.
# [1] = cited from earlier work
# rats = conditions: cited from earlier work
# NMDA receptor = conditions: 80% xenon; cultured hippocampal neurons; cited from earlier work
# [2] = in vivo; cited from earlier work
# Fischer rats = test: Formalin plantar test, nociceptive intensity scoring (behaviour); format: in vivo, rat; conditions: for area under curve (AUC) of nociceptive intensity scoring curves: 70% Xe + formalin, AUC over 60 min, mean(SEM), n=3-4
# Procedure: (§1) The study protocol was approved by the Home Office (UK), and all efforts were made to minimize animal suffering and the number of animals used. Fischer rats were used for the entire study (B&K Universal, Grimston Aldbrough Hull, UK). The rats were provided ad libitum food and water, and artificial lighting between 6 a.m. and 6 p.m. The age of each animal was determined from the body weight, based on a previously established growth curve (Hashimoto et al., 2002). (The date of birth was defined as 0 day-old.) Experiments were performed on rat pups of 7, 19, 28 day-old and on adult rats (11-12 week-old).
# (§2) Within each age-group, there were three cohorts (n=3 - 4) “Air+formalin”, “Xenon+formalin” and “Air+saline” cohorts. In the Air+formalin group, animals exposed to air were injected with 5% formalin into the plantar surface of their left hind paw subcutaneously. In the Xenon+formalin group, animals exposed to 70% Xe/20% O2/10% N2 were injected with 5% formalin as described above. In the Air+saline group, animals exposed to air were injected with saline as above. The volumes of formalin or saline injected were adjusted for each age group as previously reported [Ohashi Y et al, Pain 2002;100:7-18] and were as follows: 10 μl for 7 days old; 15 μl for 19 days old; 20 μl for 28 days old; 50 μl for adults.
# (§3) A recirculating system for exposure to the gas was constructed to minimise xenon consumption (FIG. 3). The circuit was flushed with gas (either air or xenon/oxygen/nitrogen) at a flow rate of 4 l/min and after the desired gas concentrations were achieved, the flow rate was reduced to 40 ml/min for the remainder of the experimental period. The carbon dioxide level and the humidity were kept less than 0.6% and 50% respectively with soda lime and silica gel. Formalin or saline was administered 15 min after gas exposure; thereafter, animals were exposed to the gas mixture for a further 90 min.
# Immediately after injection of formalin, behavior was recorded for 60 min with a video camera (MegaPixel, Digital Handycam, Sony) positioned approximately 50 cm beneath the floor of the chamber to allow an unobstructed view of the paws (visible via a television monitor) and to facilitate recording of animal behavior. The chamber and holding area for pups waiting to be tested were maintained at room temperature throughout the experiment.
# Older rat pups were scored across four categories of pain behavior after xenon administration: no pain (the injected paw was in continuous contact with floor=“0”), favoring (the injected paw rested lightly on the floor=“1”), lifting (the injected paw was elevated all the time=“2”) and licking (licking, biting or shaking of the injected paw=“3”) [Teng C J et al, Pain 1998;76:337-47] and calculated as [Nociceptive score =(T1+[T2×2]+[T3×3])/300, where T1, T2 and T3 are the durations (sec) spent in categories 1, 2 or 3 per 300 sec epoch].
# The nociceptive intensity scoring against time in each animal was plotted and the area under curve (over a 60 min time period) (AUC) from each animal was calculated. The mean of c-Fos positive neurons for three representative sections in each region as described above was the aggregate score for each animal. The results of nociceptive intensity or c-Fos positive neurons are reported as means±SEMs. The statistical analysis was performed by one-way analysis of variance, followed by Newman-Keuls test. A p value <0.05 was regarded as statistically significant.
# [3] = administration of xenon; cited from earlier work
# c-Fos expression = test: Formalin-induced c-Fos expression at the lumbar level of the spinal cord (immunohistochemistry); format: in vivo, rat; conditions: ipsilateral, 70% Xe; for reduction of c-Fos expression in response to formalin: 7 day-old pups; for suppression of mean c-Fos expression: 19 day-old rats; for depression of c-Fos expression in response to formalin: 28 day-old rats; for inhibition of c-Fos expression: adult rats
# Procedure: as §1, §2, §3
# Ninety min after the formalin injection, animals were deeply anesthetised with pentobarbital (100 mg/kg, i.p.) and perfused with 4% paraformaldehyde. The whole spinal cord was removed. The lumbar enlargement was sectioned transversely at 30 μm and then was stained for c-Fos as previously described [Ma D et al, Br J Anaesth 2002;89:73946]. Briefly, sections were incubated for 30 min in 0.3% H2O2 in methanol and thereafter washed three times in 0.1M phosphate buffered saline (PBS). Following this, the sections were incubated for 1 hour in a “blocking solution” consisting of 3% donkey serum and 0.3% Triton X in PBS (PBT) and subsequently incubated overnight at 4° C. in 1:5,000 goat anti-c-Fos antibody (sc-52-G, Santa Cruz Biotechnology, Santa Cruz, Calif.) in PBT with 1% donkey serum. The sections were then rinsed 3 times with PBT and incubated with 1:200 donkey anti-goat IgG (Vector laboratories, Burlingame, Calif.) in PBT with 1% Donkey serum for 1 hour. The sections were washed again with PBT and incubated with avidin-biotin-peroxidase complex (Vector Laboratories) in PBT for 1 hour. The sections were rinsed 3 times with PBS and stained with 3,3′-diaminobenzidine (DAB) with nickel ammonium sulphate in which hydrogen peroxide was added (DAB kit, Vector Laboratories). After the staining was completed, the sections were rinsed in PBS followed by distilled water and mounted, dehydrated with 100% ethanol, cleaned with 100% xylene and covered with cover slips.
# Photomicrographs of three sections per each animal were scored for c-Fos positive neurons by an observer who was blinded to the experimental treatment. For the purpose of localizing the c-Fos positive cells to functional regions of the spinal cord, each section was divided into A/B (laminae I-II or the superficial area), C (laminae […] or nucleus proprius area), D (laminae V-VI or the neck area and E (laminae VII-Xor the ventral area) [Yi D K et al, Pain 1995;60:257-265]. […]
smiles,measurement,setting,value
"[N-]=[N+]=O [N2O, Nitrous oxide]",effect on formalin-induced c-Fos positive neurones,c-Fos positive neurones,did not change
same,MAC,[1]; humans,104%
same,antinociceptive effect (behaviorally and immunohistochemically),"rats; animals younger than 23 days old, formalin",no antinociceptive effect
same,antinociceptive effects against thermal and inflammatory stimulation,rats; rats under 3 weeks of age,lacks antinociceptive effects
[Xe] [xenon],reduction of NMDA-activated currents,NMDA receptor,up to 60%
same,teratogenic effects,[2],devoid of teratogenic effects
same,area under curve (AUC) of nociceptive intensity scoring curves,"Fischer rats; 7-day-old Fischer rats, P<0.001 vs Air + formalin 11(0.4)",0.17(0.04)**
same,area under curve (AUC) of nociceptive intensity scoring curves,"Fischer rats; 19-day-old Fischer rats, P<0.01 vs Air + formalin 88(8)",5(0.9)*
same,area under curve (AUC) of nociceptive intensity scoring curves,"Fischer rats; 28-day-old Fischer rats, P<0.001 vs Air + formalin 81(7)",1.0(0.3)**
same,nociceptive behaviour after formalin injection,"Fischer rats; 7 day-old rats exposed to xenon, 60-min observation period",only mild nociceptive behaviour for the first two minutes
same,area under curve (AUC) of nociceptive intensity scoring curves,"Fischer rats; Adult Fischer rats, P<0.001 vs Air + formalin 120(0.7)",0.8(0.1)**
same,inherent neurotoxicity of NMDA antagonists,[3],does not appear to exist
same,reduction of c-Fos expression in response to formalin,"c-Fos expression; lamina C, P<0.001",50%
same,reduction of c-Fos expression in response to formalin,"c-Fos expression; lamina D, P<0.001",50%
same,reduction of c-Fos expression in response to formalin,"c-Fos expression; lamina E, P<0.01",28%
same,reduction of c-Fos expression in response to formalin,"c-Fos expression; laminae A/B, P<0.001",48%
same,suppression of mean c-Fos expression,"c-Fos expression; lamina III-IV, P<0.001",57%
same,suppression of mean c-Fos expression,"c-Fos expression; lamina V-VI, P<0.001",62%
same,suppression of mean c-Fos expression,"c-Fos expression; laminae I-II, P<0.001",55%
same,depression of c-Fos expression in response to formalin,"c-Fos expression; lamina III-IV, P<0.001",27%
same,depression of c-Fos expression in response to formalin,"c-Fos expression; lamina V-VI, P<0.001",28%
same,depression of c-Fos expression in response to formalin,"c-Fos expression; laminae I-II, P<0.001",34%
same,inhibition of c-Fos expression,"c-Fos expression; lamina III-IV, P<0.001",45%
same,inhibition of c-Fos expression,"c-Fos expression; lamina V-VI, P<0.001",34%
same,inhibition of c-Fos expression,"c-Fos expression; laminae I-II, P<0.001",41%
same,effect on formalin-induced c-Fos positive neurones,c-Fos positive neurones,almost completely attenuated
same,minimum alveolar concentration (MAC),[1]; elderly female patients,51 % atn
same,minimum alveolar concentration (MAC),[1]; humans,71 % atm
same,MAC-awake,[1]; in vivo,33%
